Measured values from PMC9963656, “Synthesis, Molecular Docking, and Bioactivity Study of Novel Hybrid Benzimidazole Urea Derivatives: A Promising α-Amylase and α-Glucosidase Inhibitor Candidate with Antioxidant Activity” (Pharmaceutics, 2023).

How the values were obtained:
[1] = Total antioxidant capacity (TAC), molybdate reduction; conditions: for TAC: total antioxidant capacity: compound 1 mM in DMSO, 695 nm
Method: An amount of 2 mL of freshly prepared 0.6 M solution of sulfuric acid, a solution of ammonium molybdate (4 mM), and a buffer solution of sodium phosphate (28 mM) were placed in small glass test tubes and thoroughly mixed with the compound solution (200 μL in DMSO with a concentration of 1 mM). An amount of 2 mL of molybdate reagent was mixed with 200 μL of distilled water to make a blank test. The cylinders were warmed to 85 °C for 1.5 h before cooling to ambient temperature. At 695 nm, the produced blue color was assessed with a UV spectrophotometer, with the blank reading having to serve as the auto-zero point. The TAC results were calculated using the Trolox standard calibration curve.

[2] = DPPH scavenging activity (DPPH-SA); conditions: for DPPH-SA: 2,2-diphenyl-1-picrylhydrazyl scavenging activity: compound 1 mM, 517 nm
Method: The ability of the compounds to scavenge free radicals was tested against DPPH-stable free radicals. The degree of reduction in the DPPH violet color is directly proportional to the scavenging efficacy of the compounds. According to the method of Aroua et al., 1 mL of the DMSO solutions of the tested compounds (1 mM final concentration) was thoroughly mixed in test tubes with the DPPH solution prepared at the concentration of 300 µM in methanol. After 30 min at room temperature, the reduction in DPPH-violet color was measured at 517 nm. The DPPH-SA of the compounds was calculated using the DPPH-Trolox calibration curve.

[3] = Ferric reducing antioxidant power (FRAP) assay; conditions: for FRAP: ferric reducing antioxidant power: compound 1 mM, 593 nm
Method: The FRAP reagent is a 1:1:10 mixture of TPTZ (2,4,6-Tris(2-pyridyl)-S-triazine, 10 mM prepared in 40 mM HCl), FeCl3.6H2O (20 mM), and acetate buffer (300 mM, pH 3.6). Accurately, 0.1 mL of the samples (final concentration 1 mM in DMSO) was thoroughly mixed with 2 mL of the FRAP reagent and incubated at room temperature for 30 min. At 593 nm, the absorbance was measured. The compounds FRAP activity was calculated using the FRAP-trolox calibration curve in trolox equivalent.

[4] = Iron chelating activity assay (MCA); conditions: for MCA: metal chelating activity: compound 1 mM, 562 nm
Method: Using the method of Zengin et al. with modification, the ability of compounds to chelate iron compared to the EDTA was estimated. To inchoate the color, a compound solution in DMSO ([…] a final concentration of 1 mM) plus ferrous chloride (25 μL, 2 mM, FeCl2) was added to 100 μL of ferrozine. At 562 nm, the absorbance of the mixture was measured in comparison to a blank (prepared similarly to a test without ferrozine). The chelating activity of the extract was calculated in equivalents to the EDTA standard calibration curve.

α-amylase = α-amylase (Aspergillus oryzae, UniProt P0C1B3); test: biochemical; conditions: triplicate values; read-out: α-Amylase Inhibition IC50 ± SEM
Method: The α-amylase inhibition activity was measured using the previously reported methodologies. An amount of 500 μL of test sample ([…]) and 500 μL of […] α-amylase (source: Aspergillus oryzae) solution (0.5 mg/mL) in […] phosphate buffer (pH 6.9) were incubated for 10 min at 25 °C. Following pre-incubation, 500 μL of 1% starch solution in 0.02 M sodium phosphate buffer (pH 6.9) was added and incubated for 10 min at 25 °C. An amount of 1 mL of dinitro salicylic acid color reagent was used to stop the reaction. The tubes were then placed in boiling water for 5 min before being cooled to room temperature. After diluting the solutions with 10 mL of distilled water, the absorbance at 540 nm was measured. […] The percentage of enzyme inhibition was calculated using the following equation:(1) % of Enzyme Inhibition=(Absorbance of control – Absorbance of compound)×100 /Absorbance of control

α-glucosidase = target: T1, α-glucosidase (Saccharomyces cerevisiae, UniProt P53341); test: biochemical; conditions: triplicate values; read-out: α-Glucosidase Inhibition IC50 ± SEM
T1 construct: purchased Sigma-Aldrich
T1 sequence (P53341 whole entry): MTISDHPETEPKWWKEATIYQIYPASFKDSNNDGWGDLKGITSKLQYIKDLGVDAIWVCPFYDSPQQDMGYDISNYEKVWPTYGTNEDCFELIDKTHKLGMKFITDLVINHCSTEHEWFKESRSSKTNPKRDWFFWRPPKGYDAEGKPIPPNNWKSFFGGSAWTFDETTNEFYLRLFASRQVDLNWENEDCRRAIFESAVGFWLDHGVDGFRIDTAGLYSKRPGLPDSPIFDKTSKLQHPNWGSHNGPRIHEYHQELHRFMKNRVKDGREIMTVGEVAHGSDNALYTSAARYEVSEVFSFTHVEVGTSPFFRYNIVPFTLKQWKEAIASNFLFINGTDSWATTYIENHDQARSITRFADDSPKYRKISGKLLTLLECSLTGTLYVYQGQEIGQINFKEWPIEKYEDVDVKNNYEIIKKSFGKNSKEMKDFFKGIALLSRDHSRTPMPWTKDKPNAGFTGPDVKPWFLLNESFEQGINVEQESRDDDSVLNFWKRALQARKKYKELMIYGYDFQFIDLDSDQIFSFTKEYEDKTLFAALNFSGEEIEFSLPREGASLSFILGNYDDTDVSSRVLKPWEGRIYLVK
Method: The inhibition of α-glucosidase activity was measured using a modified version of a previously published method. In 100 mL of phosphate buffer (pH 6.8) containing 200 mg of bovine serum albumin, one milligram of α-glucosidase (Saccharomyces cerevisiae, Sigma-Aldrich, St. Louis, MO, USA) was dissolved (Merck, Darmstadt, Germany). The reaction mixture was made up of 10 μL of sample at various concentrations ([…]), 490 μL of phosphate buffer pH 6.8, and 250 μL of 5 mM p-nitrophenyl-D-glucopyranoside (Sigma-Aldrich, Buchs, Switzerland). After a 5 min preincubation at 37 °C, 250 μL of α-glucosidase (0.15 unit/mL) was added and incubated at 37 °C for 15 min. The reaction was stopped by adding 2000 μL Na2CO3 200 mM. α-glucosidase activity was measured using a spectrophotometer UV-Vis (Shimadzu 265, Kyoto, Japan) at 400 nm by measuring the amount of p-nitrophenol released from p-NPG. […] Equation (1) was used to calculate the percentage of inhibition.

SMILES | TAC: total antioxidant capacity [1] | DPPH-SA: 2,2-diphenyl-1-picrylhydrazyl scavenging activity [2] | FRAP: ferric reducing antioxidant power [3] | MCA: metal chelating activity [4] | IC50 (α-amylase) [µM] | IC50 (α-glucosidase) [µM] | melting point [°C] | total antioxidant capacity (TAC), molybdenum (VI) reducing activity [1] [mM trolox equivalents] | ferric reducing antioxidant power (FRAP) [3] [mM trolox equivalents] | DPPH-SA [2] [mM trolox equivalents] | metal chelating activity (MCA) [4] [mM EDTA equivalents]
O=C(Nc1ccccc1)Nc1ccccc1-c1nc2ccccc2[nH]1 [3a, 1-(2-(1H-benzo[d]imidazol-2-yl)phenyl)-3-phenylurea] | 1.33 ± 0.46 trolox equivalent per 1 mM of the compounds | 1.17 ± 0.07 trolox equivalent per 1 mM of the compounds | 6.53 ± 0.03 trolox equivalent per 1 mM of the compounds | 1.62 ± 0.10 EDTA equivalent per 1 mM of the compounds | 40.7 ± 0.06 | 42.97 ± 0.19 | 129 to 131 | – | – | – | –
O=C(Nc1ccccc1-c1nc2ccccc2[nH]1)Nc1cccc2ccccc12 [3b, 1-(2-(1H-benzo[d]imidazol-2-yl)phenyl)-3-(naphthalen-1-yl)urea] | 5.16 ± 0.69 trolox equivalent per 1 mM of the compounds | 0.96 ± 0.06 trolox equivalent per 1 mM of the compounds | 9.25 ± 0.20 trolox equivalent per 1 mM of the compounds | 1.55 ± 0.07 EDTA equivalent per 1 mM of the compounds | 41.7 ± 0.06 | 45.97 ± 0.19 | 203 to 205 | 5.16 ± 0.69 | – | – | –
COc1ccc(NC(=O)Nc2ccccc2-c2nc3ccccc3[nH]2)cc1 [3c, 1-(2-(1H-benzo[d]imidazol-2-yl)phenyl)-3-(4-methoxyphenyl)urea] | 4.43 ± 0.53 trolox equivalent per 1 mM of the compounds | 1.61 ± 0.02 trolox equivalent per 1 mM of the compounds | 8.65 ± 0.29 trolox equivalent per 1 mM of the compounds | 1.55 ± 0.22 EDTA equivalent per 1 mM of the compounds | 18.7 ± 0.23 | 17.47 ± 0.03 | 197 to 199 | 4.43 ± 0.53 | 8.65 ± 0.29 | – | –
O=C(Nc1ccccc1-c1nc2ccccc2[nH]1)NC1CCCCC1 [3d, 1-(2-(1H-benzo[d]imidazol-2-yl)phenyl)-3-cyclohexylurea] | 2.47 ± 0.42 trolox equivalent per 1 mM of the compounds | 2.89 ± 1.07 trolox equivalent per 1 mM of the compounds | 5.67 ± 0.69 trolox equivalent per 1 mM of the compounds | 1.46 ± 0.10 EDTA equivalent per 1 mM of the compounds | 25.65 ± 0.03 | 27.47 ± 0.13 | 330 to 332 | – | – | 2.89 ± 1.07 | –
CC(C)NC(=O)Nc1ccccc1-c1nc2ccccc2[nH]1 [3e, 1-(2-(1H-benzo[d]imidazol-2-yl)phenyl)-3-isopropylurea] | 2.52 ± 0.80 trolox equivalent per 1 mM of the compounds | 1.70 ± 0.01 trolox equivalent per 1 mM of the compounds | 2.75 ± 0.15 trolox equivalent per 1 mM of the compounds | 1.47 ± 0.09 EDTA equivalent per 1 mM of the compounds | 20.7 ± 0.06 | 21.97 ± 0.19 | 196 to 198 | – | – | – | –
CCCCNC(=O)Nc1ccccc1-c1nc2ccccc2[nH]1 [3f, 1-(2-(1H-benzo[d]imidazol-2-yl)phenyl)-3-butylurea] | 8.50 ± 0.87 trolox equivalent per 1 mM of the compounds | 1.55 ± 0.03 trolox equivalent per 1 mM of the compounds | 5.99 ± 0.02 trolox equivalent per 1 mM of the compounds | 1.40 ± 0.07 EDTA equivalent per 1 mM of the compounds | 28.33 ± 0.02 | 29.01 ± 0.12 | 196 to 198 | 8.50 ± 0.87 | – | – | –
O=C(Nc1ccc(NC(=O)Nc2ccccc2-c2nc3ccccc3[nH]2)cc1)Nc1ccccc1-c1nc2ccccc2[nH]1 [3g, 1,1’-(1,4-phenylene)bis(3-(2-(1H-benzo[d]imidazol-2-yl)phenyl)urea)] | 10.06 ± 1.51 trolox equivalent per 1 mM of the compounds | 3.86 ± 0.04 trolox equivalent per 1 mM of the compounds | 16.12 ± 0.29 trolox equivalent per 1 mM of the compounds | 1.36 ± 0.09 EDTA equivalent per 1 mM of the compounds | 22.33 ± 0.12 | 23.01 ± 0.12 | 190 to 192 | 10.06 ± 1.51 | 16.12 ± 0.29 | 3.86 ± 0.04 | –
O=C(NCC1CCC(CNC(=O)Nc2ccccc2-c2nc3ccccc3[nH]2)CC1)Nc1ccccc1-c1nc2ccccc2[nH]1 (centres unmarked) [3h, 1,1′-(cyclohexane-1,4-diylbis(methylene))bis(3-(2-(1H-benzo[d]imidazol-2-yl)phenyl)urea)] | 2.25 ± 0.65 trolox equivalent per 1 mM of the compounds | 1.09 ± 0.03 trolox equivalent per 1 mM of the compounds | 6.79 ± 0.50 trolox equivalent per 1 mM of the compounds | 2.95 ± 0.21 EDTA equivalent per 1 mM of the compounds | 43.04 ± 0.02 | 44.99 ± 0.09 | 190 to 192 | – | – | – | 2.95 ± 0.21
